“And” between values parts separate entries of the source, which are not always exact repeats. Identical values can stand only once.
How the values were obtained:
[1] = tested on: P. falciparum stage III–IV gametocytes; test: P. falciparum gametocyte viability assay (MitoTracker, flow cytometry), stage III-IV; assay type: cell-based, Plasmodium falciparum; details: Plasmodium falciparum, 48 h
Description: Gametocyte assays commenced seven days (stage III–IV) or ten days (stage V) post-invasion. […]
Plasmodium falciparum Gametocyte Viability Assays:
Asexual P. falciparum parasites were induced to form gametocytes as described (21).
Synchronized trophozoite-stage parasites at 2% parasitaemia were incubated overnight and […]
haematocrit maintained at 4%. On the subsequent day (designated as day 0) of gametocytogenesis, the culture containing early ring-stage parasites was first purified by sorbitol synchronisation to remove asynchronous trophozoites, and passed through a magnetic field in a sterile MACS® column in a SuperMACSTM II magnet to remove remaining late-stage parasites or later-stage gametocytes (negative selection). The culture medium was supplemented with 50 mM N-acetyl-D-glucosamine to inhibit asexual parasite proliferation, and changed daily. Sorbitol treatment was performed on Day 1, 5, and 6 to further remove asexual parasites. Gametocytes were magnetically enriched (positive selection) in a sterile column with a SuperMACSTM II magnet and eluted in culture media with 50 mM N-acetyl-D-glucosamine. These gametocytes were incubated overnight at 37 °C under microaerophilic conditions, and purity was assessed by examination under a light microscope (400× […]
Gametocyte viability was assessed as described by Ridgway et al. (21) with modifications.
Compounds or solvent controls (DMSO) were serially diluted across 96-well plates in culture media supplemented with 50 mM N-acetyl-D-glucosamine. Culture media without compound was used as a negative control. […]
control to determine background gametocyte fluorescence. Stage III-IV gametocytes (Day 7) or stage V (day 10) gametocytes were concentrated and added to the plate with 200 µL per well. The plate was incubated for 48 hours at 37 °C under humid microaerophilic conditions.
Parasites were then stained with 500 nM MitoTrackerTM Deep Red FM and 5 μg/ml Hoechst […]
cytometer as described above. […]
excluded. Live (positive) and dead (negative) gametocytes were differentiated by […]
percentage of each was calculated. […]

[2] = tested on: P. berghei liver stages; test: Plasmodium berghei liver stage growth inhibition assay (luminescence, in Huh7 cells); details: for P. berghei liver stage growth, dose-response data points (Figure 3A): replicate data points; for P. berghei liver stage growth, dose-response data points (Figure 3A) / Figure 3E dose-response value (replicates): listed as BC9B
Description: Growth inhibition or cell viability were assessed by incubation with a serial dilution of test compounds, solvent controls (DMSO, ethanol, ethyl acetate), or culture media alone in 96-well plates, with detection of fluorescence, luminescence, or absorbance in microplate readers after 24–96 h unless otherwise specified.
Huh7 cells were seeded at a density of 10,000 cells per well of a 96-well plate, or 20,000 cells per collagen-coated coverslip. After 24 h, test compounds were added the wells were inoculated with P. berghei liver stage sporozoites dissected from infected A. stephensi salivary glands with 5000–10,000 sporozoites per well or 10,000–20,000 sporozoites per coverslip. Uninfected wells served as a control for background luminescence. Luminescence signal was measured 48 h post-invasion by addition of 1:1 ONE-Glo^TM substrate (Promega) with a luminescence microplate reader. Coverslips were fixed, stained, and imaged, with all parasites on each coverslip imaged and delineated as described (Petersen et al, [2017]) using Fiji ImageJ (Schindelin et al, [2012]). Data are presented as a percentage of the size or parasite number of the solvent control to normalize for differences between experiments.
Growth inhibition data were normalised by subtracting background fluorescence, luminescence, absorbance, or percentage of cells from a no-growth or no-viability control (high drug concentration, no-parasite control, or time = 0 measurement as specified), and expressed as a percentage of the growth or cell percentage in the negative control (culture media alone or solvent control) at the indicated timepoint (or to the highest measurement reached during the assay for Fig. EV3).
Plasmodium berghei ANKA Bergreen (22) or GFP-Luc (RMgm-29) (23), respectively
expressing green fluorescent protein (GFP) or a GFP-Luciferase fusion protein, were
maintained under routine conditions in SWR/J Mus musculus mice and Anopheles stephensi
Growth inhibition of P. berghei liver-stages was investigated after infection of human
hepatoma cells (Huh7) and subsequent growth for 48 hours at 37° C, 5% CO2 and 80%
humidity. The day prior to infection, 10,000 Huh7 cells were seeded in dark-sided 96-well
microplates (Greiner Bio One). On the day of infection, compounds or solvent controls
(DMSO) were serially diluted in culture media and 5,000 – 10,000 Bergreen or GFP-Luc
sporozoites were added per well following dissection from infected A. stephensi salivary
glands. Uninfected wells served as control for background luminescence. To promote invasion,
the plates were centrifuged at 1,550 g for 5 minutes. After 60 minutes, the media was
completely replaced with fresh, prewarmed media with the matching drug concentrations.
Media was partially replaced with new drug dilutions over the following two days. 48 hours
post-infection, luminescence signal was measured by addition of 1:1 ONE-GloTM substrate
(Promega) to the wells, followed by detection at 300 – 700 nm using a Synergy HTX plate

[3] = tested on: human embryonic kidney cells (HEK293); test: Human embryonic kidney cell viability assay (MTT); assay type: cell-based; details: Homo sapiens; 96 h, HEK293; read-out: IC50, human embryonic kidney cell inhibition (viability)
Procedure, shortened: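 HEK293 cells, 5,000 per well, exposed to serially diluted compound for 96 hours; 10 µg/mL cycloheximide as background control. Viability by MTT (0.45 mg/mL, 2 h), SDS solubilisation, absorbance at 570 nm.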

## COc1cc(NC(C)CCCNC(=O)CCC(=O)OC(C)C)c2ncccc2c1 (stereo not shown) [PQ-link]
[1]; 3.125000000 uM, replicate values, source data Fig. 2C, read-out: Gametocyte stage III-IV viability, percentage of control
  viability at 3.125 µM: 97.8%
[1]; 6.250000000 uM, replicate values, source data Fig. 2C, read-out: Gametocyte stage III-IV viability, percentage of control
  viability at 6.25 µM: 100%
[1]; 12.500000000 uM, replicate values, source data Fig. 2C, read-out: Gametocyte stage III-IV viability, percentage of control
  viability at 12.5 µM: 94.9%
[1]; 25.000000000 uM, replicate values, source data Fig. 2C, read-out: Gametocyte stage III-IV viability, percentage of control
  viability at 25 µM: 92.1%
[1]; 50.000000000 uM, replicate values, source data Fig. 2C, read-out: Gametocyte stage III-IV viability, percentage of control
  viability at 50 µM: 82.6%
[1]; read-out: IC50, P. falciparum gametocyte stage III-IV inhibition
  IC50: 103 µM
[2]; 0.015241580 uM
  P. berghei liver stage growth, dose-response data points (Figure 3A): 92.27 and 99.03 and 108.7 and 82.7 and 111.9 and 105.4 and 99.3 and 85.25 and 115.4
[2]; 0.045724740 uM
  P. berghei liver stage growth, dose-response data points (Figure 3A): 97.1 and 81.64 and 78.74 and 103.7 and 110.1 and 105.2 and 93.19 and 87.52 and 92.15
[2]; 0.137174210 uM
  P. berghei liver stage growth, dose-response data points (Figure 3A): 100 and 94.2 and 80.68 and 93.41 and 113.2 and 98.29 and 109.9 and 94.24 and 87.26
[2]; 0.238281250 uM
  Figure 3E dose-response value (replicates): 98.59
[2]; 0.411522630 uM
  P. berghei liver stage growth, dose-response data points (Figure 3A): 112.6 and 99.03 and 80.68 and 102.2 and 100.8 and 100.3 and 103.8 and 90.84 and 80.37
[2]; 0.476562500 uM
  Figure 3E dose-response value (replicates): 90.54 and 104.6 and 95.37 and 97.54 and 101.7 and 100.2 and 97.21 and 100.9 and 86.29 and 94.55 and 90.62
[2]; 1.234567900 uM
  P. berghei liver stage growth, dose-response data points (Figure 3A): 102.9 and 94.2 and 112.6 and 111.7 and 103.5 and 88.53 and 119.6 and 97.91 and 82.29
[2]; 1.906250000 uM
  Figure 3E dose-response value (replicates): 91.51 and 91.73 and 86.54 and 84.53 and 94.62 and 101.5 and 100.5 and 102.9 and 93.23 and 96 and 85.81
[2]; 3.703703700 uM
  P. berghei liver stage growth, dose-response data points (Figure 3A): 97.1 and 64.25 and 91.3 and 55.79 and 60.08 and 47.34 and 73.56 and 51.31 and 52.36
[2]; 3.812500000 uM
  Figure 3E dose-response value (replicates): 95.8 and 93.79 and 78.58 and 83.98 and 89.72 and 104 and 93.76 and 101.5 and 80.15 and 95.42 and 85.86
[2]; 7.625000000 uM
  Figure 3E dose-response value (replicates): 98.29 and 86.67 and 78.83 and 80.78 and 88.54 and 106.8 and 100.5 and 90.89 and 82.41 and 82.35 and 77.49
[2]; 11.111111100 uM
  P. berghei liver stage growth, dose-response data points (Figure 3A): 24.64 and 16.91 and 28.5 and 18.53 and 18.77 and 20.08 and 31.94 and 26.35 and 21.2
[2]; 15.250000000 uM
  Figure 3E dose-response value (replicates): 60.3 and 56.28 and 80.98 and 77.04 and 83.07 and 85.06 and 90.81 and 88.28 and 61.89 and 72.05 and 69.51
[2]; 30.500000000 uM
  Figure 3E dose-response value (replicates): 25.91 and 29.38 and 68.25 and 66.32 and 65.97 and 65.87 and 62.35 and 59.29 and 31.73 and 40.4 and 41.06
[2]; 33.333333300 uM
  P. berghei liver stage growth, dose-response data points (Figure 3A): 3.382 (2×) and 4.348 and 16.15 and 16.87 and 15.2 and 10.82 and 11.34 and 9.511
[2]; 61.000000000 uM
  Figure 3E dose-response value (replicates): 6.18 and 4.905 and 12.31 and 10.74 and 14.16 and 15.86 and 12.88 and 14.9 and 2.822 and 2.591 and 2.429
[2]; 100.000000000 uM
  P. berghei liver stage growth, dose-response data points (Figure 3A): -1.449 and -0.4831 and -2.415 and 1.984 and 3.77 and 1.865 and 3.403 and 2.705 and 2.007
[2]; Plasmodium berghei, Huh-7, 48 h, read-out: IC50, P. berghei liver stage growth inhibition
  IC50: 5.7 µM
[3]
  IC50: 13.3 µM

Source: publication PMC11251039, “Harnessing cholesterol uptake of malaria parasites for therapeutic applications” (EMBO Molecular Medicine, 2024)
